# Test results reported in ChEMBL document CHEMBL6083210, “Exploring apoptotic induction of malabaricone A in triple-negative breast cancer cells: an acylphenol phyto-entity isolated from the fruit rind of Myristica malabarica Lam” (RSC Med Chem, 2024).
# Key:
# Assay type in all cases: functional, cell-based
# MCF-10A = assay: Antiproliferative activity against human MCF-10A cells assessed as reduction in cell viability incubated for 24 hrs by MTT assay
# MDA-MB-231 = assay: Antiproliferative activity against human MDA-MB-231 cells assessed as reduction in cell viability incubated for 24 hrs by MTT assay; details: MDA-MB-231, 24 h
# SK-BR-3 = assay: Antiproliferative activity against human SK-BR-3 cells assessed as reduction in cell viability incubated for 24 hrs by MTT assay; details: SK-BR-3, 24 h
compound,measurement,setting,value
COc1cccc2c1C(=O)c1c(O)c3c(c(O)c1C2=O)C[C@@](O)(C(=O)CO)C[C@@H]3O[C@H]1C[C@H](N)[C@H](O)[C@H](C)O1 [DOXORUBICIN],IC50,MCF-10A,35.2 µM
same,IC50,MDA-MB-231,20.8 µM
same,IC50,SK-BR-3,> 50 µM
